Data reported in patent US20250236608A1, “EGFR INHIBITORS” (Blueprint Medicines Corporation, priority 2022, published 2025).

How the values were obtained:
[1] = target: EGFR L858R (Homo sapiens (Human), UniProt P00533, L858R); experiment: Biochemical EGFR inhibition assay, EGFR L858R; conditions: Caliper mobility shift; 1.0 mM ATP or ATP Km; read-out: Enz EGFR_L858R IC50
[2] = target: EGFR (d746-750) (Homo sapiens (Human), UniProt P00533, DEL746-750); experiment: Biochemical EGFR inhibition assay, EGFR (d746-750); conditions: Caliper mobility shift; 1.0 mM ATP or ATP Km; read-out: Enz EGFR_Exon19-del746-750 IC50
[3] = target: pEGFR (Tyr1068) in PC-9 cells (Ex19Del) (Homo sapiens (Human), UniProt P00533, DEL746-750); experiment: PC-9 pEGFR AlphaLISA assay; format: cell-based; conditions: 4 hours incubation, p-EGFR (Tyr1068) AlphaLISA, read-out: Ext pEGFR_PC-9 Ex19Del IC50
Procedure, shortened: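 PC-9 cells seeded overnight in phenol-free DMEM with 10% FBS, then treated 4 h at 37°C with a 10-point, 4-fold compound series. Lysates assayed for pEGFR Tyr1068 by AlphaLISA SureFire; IC50 from % inhibition vs log concentration.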

Chain of EGFR (d746-750) (P00533 other isoform, or with tags, fused parts or gaps del 1-694/del 746-750 limits assumed): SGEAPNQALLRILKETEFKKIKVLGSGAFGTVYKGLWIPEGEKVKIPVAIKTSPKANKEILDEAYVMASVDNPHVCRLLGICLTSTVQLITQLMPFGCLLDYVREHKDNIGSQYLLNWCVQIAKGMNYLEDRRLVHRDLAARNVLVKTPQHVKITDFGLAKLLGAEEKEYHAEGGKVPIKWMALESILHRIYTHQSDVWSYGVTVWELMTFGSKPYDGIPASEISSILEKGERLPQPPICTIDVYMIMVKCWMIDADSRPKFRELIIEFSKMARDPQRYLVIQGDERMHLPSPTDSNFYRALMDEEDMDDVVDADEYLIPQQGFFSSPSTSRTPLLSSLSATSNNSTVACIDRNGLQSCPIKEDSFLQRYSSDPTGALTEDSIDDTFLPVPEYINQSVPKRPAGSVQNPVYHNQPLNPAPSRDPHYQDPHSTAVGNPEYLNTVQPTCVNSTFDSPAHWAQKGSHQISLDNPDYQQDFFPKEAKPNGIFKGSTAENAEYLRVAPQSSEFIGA
Chain of pEGFR (Tyr1068) in PC-9 cells (Ex19Del) (P00533 other isoform, or with tags, fused parts or gaps del 746-750): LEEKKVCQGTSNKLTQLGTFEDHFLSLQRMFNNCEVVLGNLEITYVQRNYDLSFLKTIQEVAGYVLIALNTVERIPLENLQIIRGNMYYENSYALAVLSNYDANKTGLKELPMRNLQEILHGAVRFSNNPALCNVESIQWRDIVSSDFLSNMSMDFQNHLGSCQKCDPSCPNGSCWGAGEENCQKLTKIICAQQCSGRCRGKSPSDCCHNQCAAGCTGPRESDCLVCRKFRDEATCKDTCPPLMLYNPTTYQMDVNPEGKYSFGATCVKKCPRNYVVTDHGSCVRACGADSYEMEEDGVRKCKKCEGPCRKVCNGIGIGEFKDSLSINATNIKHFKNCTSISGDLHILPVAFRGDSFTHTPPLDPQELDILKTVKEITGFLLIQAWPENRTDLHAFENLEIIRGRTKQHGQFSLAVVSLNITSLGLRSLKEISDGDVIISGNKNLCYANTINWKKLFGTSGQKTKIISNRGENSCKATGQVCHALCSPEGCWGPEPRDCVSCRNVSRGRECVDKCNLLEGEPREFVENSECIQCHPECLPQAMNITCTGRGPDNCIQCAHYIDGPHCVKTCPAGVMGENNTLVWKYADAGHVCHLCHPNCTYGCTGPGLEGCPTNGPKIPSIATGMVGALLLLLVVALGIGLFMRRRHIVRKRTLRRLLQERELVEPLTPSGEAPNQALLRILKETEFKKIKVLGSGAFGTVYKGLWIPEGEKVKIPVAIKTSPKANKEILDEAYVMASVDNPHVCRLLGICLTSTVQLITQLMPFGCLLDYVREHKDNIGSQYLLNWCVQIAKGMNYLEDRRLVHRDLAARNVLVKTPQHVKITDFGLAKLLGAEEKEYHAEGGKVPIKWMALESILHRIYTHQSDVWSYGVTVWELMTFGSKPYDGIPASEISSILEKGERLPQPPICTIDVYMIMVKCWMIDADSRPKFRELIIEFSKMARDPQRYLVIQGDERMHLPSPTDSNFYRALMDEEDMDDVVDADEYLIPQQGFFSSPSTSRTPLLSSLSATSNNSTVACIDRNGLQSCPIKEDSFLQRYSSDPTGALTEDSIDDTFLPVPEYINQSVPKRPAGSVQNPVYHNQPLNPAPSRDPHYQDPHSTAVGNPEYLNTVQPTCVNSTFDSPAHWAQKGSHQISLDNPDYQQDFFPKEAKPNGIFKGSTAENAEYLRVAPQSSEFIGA
Chain of EGFR L858R (P00533 25-1210 L858R): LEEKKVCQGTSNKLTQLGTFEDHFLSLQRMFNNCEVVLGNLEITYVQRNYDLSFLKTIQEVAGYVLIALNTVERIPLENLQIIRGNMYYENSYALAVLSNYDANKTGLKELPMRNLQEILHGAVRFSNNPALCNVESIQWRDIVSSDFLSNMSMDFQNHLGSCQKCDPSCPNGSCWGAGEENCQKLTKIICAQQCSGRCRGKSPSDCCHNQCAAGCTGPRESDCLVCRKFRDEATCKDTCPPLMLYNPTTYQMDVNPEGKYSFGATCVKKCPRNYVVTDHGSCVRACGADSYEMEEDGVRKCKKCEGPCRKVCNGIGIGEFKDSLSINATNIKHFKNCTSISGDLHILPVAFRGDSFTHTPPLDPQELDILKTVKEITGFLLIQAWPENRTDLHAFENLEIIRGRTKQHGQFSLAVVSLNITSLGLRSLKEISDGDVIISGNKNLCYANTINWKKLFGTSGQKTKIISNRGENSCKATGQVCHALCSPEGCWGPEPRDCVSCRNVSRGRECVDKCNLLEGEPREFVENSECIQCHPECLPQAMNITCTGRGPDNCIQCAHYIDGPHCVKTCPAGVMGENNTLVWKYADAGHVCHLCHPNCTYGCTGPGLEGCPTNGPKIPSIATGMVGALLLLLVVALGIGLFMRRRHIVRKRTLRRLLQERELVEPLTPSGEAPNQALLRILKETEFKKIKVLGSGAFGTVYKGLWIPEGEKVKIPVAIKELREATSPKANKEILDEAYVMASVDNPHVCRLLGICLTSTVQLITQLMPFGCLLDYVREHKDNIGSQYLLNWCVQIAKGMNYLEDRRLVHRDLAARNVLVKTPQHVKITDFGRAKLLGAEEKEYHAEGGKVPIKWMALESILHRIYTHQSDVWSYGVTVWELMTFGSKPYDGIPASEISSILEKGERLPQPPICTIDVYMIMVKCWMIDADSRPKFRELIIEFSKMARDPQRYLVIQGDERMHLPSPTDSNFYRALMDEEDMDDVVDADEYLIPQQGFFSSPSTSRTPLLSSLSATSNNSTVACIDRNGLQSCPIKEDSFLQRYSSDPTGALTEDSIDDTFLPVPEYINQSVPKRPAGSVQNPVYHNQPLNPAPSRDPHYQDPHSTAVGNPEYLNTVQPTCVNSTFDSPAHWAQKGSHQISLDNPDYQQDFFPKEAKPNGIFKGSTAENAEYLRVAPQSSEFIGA

Compound	IC50 [1]	IC50 [2]	IC50 [3]
CCOc1cc2ncnc(-c3cn(C)nc3-c3ccccc3)c2nc1NC(=O)C12CC(C1)C2 [Example 311, N-(7-ethoxy-4-(1-methyl-3-phenyl-1H-pyrazol-4-yl)pyrido[3,2-d]pyrimidin-6-yl)bicyclo[1.1.1]pentane-1-carboxamide]	3.4 nM	1.9 nM	2.1 nM
COc1cc2ncnc(-c3c[nH]nc3-c3ccccc3)c2cc1[C@@H]1CCCCO1 (single isomer, unassigned) [Example 132, (S)-7-methoxy-4-(3-phenyl-1H-pyrazol-4-yl)-6-(tetrahydro-2H-pyran-2-yl)quinazoline or (R)-7-methoxy-4-(3-phenyl-1H-pyrazol-4-yl)-6-(tetrahydro-2H-pyran-2-yl)quinazoline]	1.4 nM	0.9 nM	0.6 nM
COc1cc2ncnc(-c3cn(C)nc3-c3ccccc3F)c2nc1NC(=O)C1(C(F)F)CC1 [Example 366, 1-(difluoromethyl)-N-(4-(3-(2-fluorophenyl)-1-methyl-1H-pyrazol-4-y1)-7-methoxypyrido[3,2-d]pyrimidin-6-yl)cyclopropane-1-carboxamide]	1.4 nM	0.8 nM	1.4 nM
CN1CC[C@@H](Oc2cc3c(-c4cn(C)nc4-c4ccccc4)ncnc3cc2OC(F)F)[C@H](F)C1 [Example 475, 7-(difluoromethoxy)-6-{[(3R,4R)-3-fluoro-1-methylpiperidin-4-yl]oxy}-4-(1-methyl-3-phenyl-1H-pyrazol-4-yl)quinazoline]	65.5 nM	21 nM	71.6 nM
COc1cc2ncnc(-c3cn(C)nc3-c3ccccc3)c2cc1OC1CCOCC1 [Example 14, 7-methoxy-4-(1-methyl-3-phenyl-1H-pyrazol-4-yl)-6-((tetrahydro-2H-pyran-4-yl)oxy)quinazoline]	3.6 nM	2 nM	5 nM
COc1cc2ncnc(-c3cn(CC(F)F)nc3-c3ccccc3)c2nc1NC(=O)[C@@]12C[C@@H]1CN(C)C2 (single isomer, unassigned) [Example 397, (1R,5R)—N-(4-(1-(2,2-difluoroethyl)-3-phenyl-1H-pyrazol-4-yl)-7-methoxypyrido[3,2-d]pyrimidin-6-yl)-3-methyl-3-azabicyclo[3.1.0]hexane-1-carboxamide or (1S,5S)—N-(4-(1-(2,2-difluoroethyl)-3-phenyl-1H-pyrazol-4-yl)-7-methoxypyrido[3,2-d]pyrimidin-6-yl)-3-methyl-3-azabicyclo[3.1.0]hexane-1-carboxamide]	2.3 nM	1 nM	1.6 nM
COc1cc2ncnc(-c3cn(C)nc3-c3ccccc3)c2cc1N1CCN(C)C1=O [Example 176, 1-(7-methoxy-4-(1-methyl-3-phenyl-1H-pyrazol-4-yl)quinazolin-6-yl)-3-methylimidazolidin-2-one]	5.4 nM	3 nM	11 nM
COc1cc2ncnc(-c3cn(C)nc3-c3ccccc3)c2cc1NC(=O)[C@H]1C[C@H]1C [Example 282, (1S,2R)—N-(7-methoxy-4-(1-methyl-3-phenyl-1H-pyrazol-4-yl)quinazolin-6-yl)-2-methylcyclopropane-1-carboxamide]	2.2 nM	1.6 nM	0.7 nM
COc1cc2ncnc(-c3cn(C)nc3-c3ccccc3)c2nc1OC(=O)N1CCN(C)C[C@@H]1C [Example 55, 7-methoxy-4-(1-methyl-3-phenyl-1H-pyrazol-4-yl)pyrido[3,2-d]pyrimidin-6-yl (S)-2,4-dimethylpiperazine-1-carboxylate]	5 nM	2 nM	3.6 nM
[2H]C([2H])([2H])n1cc(-c2ncnc3cc(OC)c(NC(=O)C4(C(F)(F)F)CC4)nc23)c(-c2ccccc2)n1 [Example 320, N-(7-methoxy-4-(1-(methyl-d3)-3-phenyl-1H-pyrazol-4-yl)pyrido[3,2-d]pyrimidin-6-yl)-1-(trifluoromethyl)cyclopropane-1-carboxamide]	2 nM	0.6 nM	1.1 nM
COc1cc2ncnc(-c3cn(C)nc3-c3ccc(F)cc3)c2nc1NC(=O)[C@]12CN(C)C[C@H]1C2(F)F (single isomer, unassigned) [Example 425, (1R,5S)-6,6-difluoro-N-(4-(3-(4-fluorophenyl)-1-methyl-1H-pyrazol-4-yl)-7-methoxypyrido[3,2-d]pyrimidin-6-yl)-3-methyl-3-azabicyclo[3.1.0]hexane-1-carboxamide or (1S,5R)-6,6-difluoro-N-(4-(3-(4-fluorophenyl)-1-methyl-1H-pyrazol-4-yl)-7-methoxypyrido[3,2-d]pyrimidin-6-yl)-3-methyl-3-azabicyclo[3.1.0]hexane-1-carboxamide]	2.8 nM	1 nM	0.8 nM
COc1cc2ncnc(-c3cn(C)nc3-c3ccccc3)c2cc1NC(=O)[C@@H]1CCCN1C (single isomer, unassigned) [Example 243, (R)—N-(7-methoxy-4-(1-methyl-3-phenyl-1H-pyrazol-4-yl)quinazolin-6-yl)-1-methylpyrrolidine-2-carboxamide or (S)—N-(7-methoxy-4-(1-methyl-3-phenyl-1H-pyrazol-4-yl)quinazolin-6-yl)-1-methylpyrrolidine-2-carboxamide]	4.9 nM	2.4 nM	4.4 nM
CCn1cc(-c2ncnc3cc(OC(F)F)c(NC(=O)C4CC4)cc23)c(-c2ccccc2)n1 [Example 302, N-(7-(difluoromethoxy)-4-(1-ethyl-3-phenyl-1H-pyrazol-4-yl)quinazolin-6-yl)cyclopropanecarboxamide]	1.4 nM	0.7 nM	1.6 nM
COc1cc2ncnc(-c3cn(C)nc3-c3ccccc3)c2cc1NC(=O)c1cnn(C(C)C)c1 [Example 208, 1-isopropyl-N-(7-methoxy-4-(1-methyl-3-phenyl-1H-pyrazol-4-yl)quinazolin-6-yl)-1H-pyazole-4-carboxamide]	1.1 nM	0.7 nM	1.8 nM
COc1cc2ncnc(-c3cn(C)nc3-c3ccccc3)c2cc1NC(=O)N1CCN(C)[C@@H](C)[C@H]1C (single isomer, unassigned) [Example 180, (2R,3S)—N-(7-methoxy-4-(1-methyl-3-phenyl-1H-pyrazol-4-yl)quinazolin-6-yl)-2,3,4-trimethylpiperazine-1-carboxamide or (2S,3R)—N-(7-methoxy-4-(1-methyl-3-phenyl-1H-pyrazol-4-yl)quinazolin-6-yl)-2,3,4-trimethylpiperazine-1-carboxamide]	3.8 nM	2.2 nM	4 nM
CCOc1cc2ncnc(-c3cn(C)nc3-c3ccc(F)cc3)c2nc1NC(=O)[C@@]12COC[C@@H]1C2 (single isomer, unassigned) [Example 385, (1R,5R)—N-(7-ethoxy-4-(3-(4-fluorophenyl)-1-methyl-1H-pyrazol-4-yl)pyrido[3,2-d]pyrimidin-6-yl)-3-oxabicyclo[3.1.0]hexane-1-carboxamide or (1S,5S)—N-(7-ethoxy-4-(3-(4-fluorophenyl)-1-methyl-1H-pyrazol-4-yl)pyrido[3,2-d]pyrimidin-6-yl)-3-oxabicyclo[3.1.0]hexane-1-carboxamide]	1.7 nM	0.4 nM	0.7 nM
CCOc1cc2ncnc(-c3cn(C4CC4)nc3-c3ccccc3)c2cc1[C@@H](C)O (single isomer, unassigned) [Example 111, (R)-1-(4-(1-cyclopropyl-3-phenyl-1H-pyrazol-4-yl)-7-ethoxyquinazolin-6-yl)ethan-1-ol or (S)-1-(4-(1-cyclopropyl-3-phenyl-1H-pyrazol-4-yl)-7-ethoxyquinazolin-6-yl)ethan-1-ol]	1.4 nM	0.7 nM	2.5 nM
CCn1cc(-c2ncnc3cc(OC)c(NC(=O)c4cnn(CCN(C)C)c4)nc23)c(-c2ccccc2)n1 [Example 319, 1-(2-(dimethylamino)ethyl)-N-(4-(1-ethyl-3-phenyl-1H-pyrazol-4-yl)-7-methoxypyrido[3,2-d]pyrimidin-6-yl)-1H-pyrazole-4-carboxamide]	1.1 nM	0.7 nM	0.4 nM
COc1cc2ncnc(-c3cn(C)nc3-c3ccccc3)c2cc1NC(=O)c1scnc1C [Example 207, N-(7-methoxy-4-(1-methyl-3-phenyl-1H-pyrazol-4-yl)quinazolin-6-yl)-4-methylthiazole-5-carboxamide]	1.4 nM	0.8 nM	1 nM
COc1cc2ncnc(-c3cn(C)nc3-c3ccccc3)c2nc1O[C@H](C)c1cn(C)nn1 [Example 43, (R)-7-methoxy-6-(1-(1-methyl-1H-1,2,3-triazol-4-yl)ethoxy)-4-(1-methyl-3-phenyl-1H-pyrazol-4-yl)pyrido[3,2-d]pyrimidine]	1.4 nM	0.8 nM	1.9 nM
COc1cc2ncnc(-c3cn(C)nc3-c3cccc(O)c3)c2nc1NC(=O)C1(C(F)(F)F)CC1 [Example 422, N-(4-(3-(3-hydroxyphenyl)-1-methyl-1H-pyrazol-4-yl)-7-methoxypyrido[3,2-d]pyrimidin-6-yl)-1-(trifluoromethyl)cyclopropane-1-carboxamide]	6.7 nM	1 nM	4.1 nM
COc1cc2ncnc(-c3cn(C)nc3-c3ccccc3)c2cc1NC(=O)c1ccncc1 [Example 351, N-(7-methoxy-4-(1-methyl-3-phenyl-1H-pyrazol-4-yl)quinazolin-6-yl)isonicotinamide]	3.1 nM	1.7 nM	4.6 nM
